Where two headings read alike, the source gives them in different places.
Assays:
A2058 cells = experiment: Cell viability assay (CELL-TITER-GLO) in A2058 cells; format: cell-based; details: Homo sapiens, A2058 cells, 48 hour treatment, cell viability, read-out: IC50 (μM) A2058
Protocol: (§1) Cell viability assays were run using standard protocols known to those of skill in art. Cells were plated in 96 well plates at the density of 3,000-10,000 cells per well. Twenty four hours later, cells were treated with increasing concentration of test compounds (1 nM to 1 μM). After another 48 hour, cell survival was measured using CELL-TITER-GLO® reagent (Promega) following the protocol provided by the manufacture. The IC50 value was determined as the concentration of test compound that kills 50% of the cell population.
(§2) Cell viability data generated according to the protocol described in Example 97 was generated for representative compounds in A2058 and U937 cells.

U937 cells = experiment: Cell viability assay (CELL-TITER-GLO) in U937 cells; format: cell-based; details: Homo sapiens, U937 cells, 48 hour treatment, cell viability, read-out: IC50 (μM) U937
Protocol: as §1, §2

| IC50 (U937 cells; U-937) [µM] | SMILES | IC50 (A2058 cells; A2058, 48 h) [µM] | IC50 (U937 cells; U-937, 48 h) [µM] | IC50 (A2058 cells) [µM] |
| --- | --- | --- | --- | --- |
| – | CC(C)[C@H](O)C(=O)N[C@H]1Cc2ccc3c(c2)[C@]24C5=C(N=C(O5)[C@H](C(C)C)NC1=O)c1ncc(o1)-c1c[nH]c5cccc(c15)-c1cccc2c1NC4O3 (stereo partly drawn) [Cpd J, reference compound] | 0.039 | 0.026 | – |
| – | COC(=O)c1nc2oc1[C@@]13c4ccccc4NC1Oc1ccc(cc13)CC(N)C(=O)N[C@H]2C(C)C (stereo partly drawn) [Example 3] | > 1 | > 1 | – |
| > 1 | COC(=O)c1nc2oc1[C@@]13c4ccccc4NC1Oc1ccc(cc13)CC(NC(=O)OCc1ccccc1)C(=O)N[C@H]2C(C)C (stereo partly drawn) [Example 4] | – | – | > 1 |
| – | COC(=O)c1nc2oc1[C@@]13c4ccccc4NC1Oc1ccc(cc13)C[C@H](NC(=O)[C@@H](O)C(C)C)C(=O)N[C@H]2C(C)C (stereo partly drawn) [Example 6] | > 1 | > 1 | – |
| – | COC(=O)c1nc2oc1[C@@]13c4ccccc4NC1Oc1ccc(cc13)C[C@H](NC(=O)[C@@H](O)c1ccccc1)C(=O)N[C@H]2C(C)C (stereo partly drawn) [Example 7] | > 1 | > 1 | – |
| – | [H][C@]1(C(=O)N[C@H]2Cc3ccc4c(c3)C3(C5=C(C(=O)OC)N=C(O5)[C@H](C(C)C)NC2=O)c2ccccc2N[C@H]3O4)CCCO1 (stereo partly drawn) [Example 8] | > 1 | > 1 | – |
| – | COC(=O)c1nc2oc1C13c4ccccc4N[C@H]1Oc1ccc(cc13)C[C@H](NC(=O)[C@@H](O)CC(C)C)C(=O)N[C@H]2C(C)C (stereo partly drawn) [Example 9] | > 1 | > 1 | – |
| – | COC(=O)c1nc2oc1C13c4ccccc4N[C@H]1Oc1ccc(cc13)C[C@H](NC(=O)c1cc(OC)c(OC)c(OC)c1)C(=O)N[C@H]2C(C)C (stereo partly drawn) [Example 10] | > 1 | > 1 | – |
| – | CC(C)[C@H](O)C(=O)N[C@H]1Cc2ccc3c(c2)[C@]2(C4=C(C(=O)NCCc5c[nH]c6ccccc56)N=C(O4)[C@H](C(C)C)NC1=O)c1ccccc1NC2O3 (stereo partly drawn) [Example 11] | > 1 | > 1 | – |
| > 1 | CC(C)[C@H](O)C(=O)N[C@H]1Cc2ccc3c(c2)[C@]2(C4=C(C(=O)O)N=C(O4)[C@H](C(C)C)NC1=O)c1ccccc1NC2O3 (stereo partly drawn) [Example 12] | – | – | > 1 |
| – | COC(=O)[C@@H]1CCCN1C(=O)c1nc2oc1C13c4ccccc4N[C@H]1Oc1ccc(cc13)C[C@H](NC(=O)[C@@H](O)C(C)C)C(=O)N[C@H]2C(C)C (stereo partly drawn) [Example 13] | > 1 | > 1 | – |
| – | CC(C)[C@H](O)C(=O)N[C@H]1Cc2ccc3c(c2)C2(C4=C(C(=O)N5CCCC5)N=C(O4)[C@H](C(C)C)NC1=O)c1ccccc1N[C@H]2O3 (stereo partly drawn) [Example 14] | > 1 | > 1 | – |
| > 1 | CC(C)[C@H](O)C(=O)N[C@H]1Cc2ccc3c(c2)C2(C4=C(C(=O)NCc5ccccc5)N=C(O4)[C@H](C(C)C)NC1=O)c1ccccc1N[C@H]2O3 (stereo partly drawn) [Example 15] | – | – | > 1 |
| – | CC(C)[C@H](O)C(=O)N[C@H]1Cc2ccc3c(c2)C2(C4=C(C(=O)NCC5CCCCC5)N=C(O4)[C@H](C(C)C)NC1=O)c1ccccc1N[C@H]2O3 (stereo partly drawn) [Example 16] | > 1 | > 1 | – |
| – | CC(C)[C@H](O)C(=O)N[C@H]1Cc2ccc3c(c2)C2(C4=C(C(=O)N[C@@H]5CCCc6ccccc65)N=C(O4)[C@H](C(C)C)NC1=O)c1ccccc1N[C@H]2O3 (stereo partly drawn) [Example 17] | > 1 | > 1 | – |
| – | CC(C)[C@H](O)C(=O)N[C@H]1Cc2ccc3c(c2)C2(C4=C(C(=O)NCC(c5ccccc5)c5ccccc5)N=C(O4)[C@H](C(C)C)NC1=O)c1ccccc1N[C@H]2O3 (stereo partly drawn) [Example 18] | > 1 | > 1 | – |
| > 1 | CC(C)[C@H](O)C(=O)N[C@H]1Cc2ccc3c(c2)C2(C4=C(C(=O)NC(c5ccccc5)c5ccccc5)N=C(O4)[C@H](C(C)C)NC1=O)c1ccccc1N[C@H]2O3 (stereo partly drawn) [Example 19] | – | – | > 1 |

| IC50 (U937 cells; U-937) [µM] | SMILES | IC50 (A2058 cells; A2058, 48 h) [µM] | IC50 (U937 cells; U-937, 48 h) [µM] | IC50 (A2058 cells) [µM] |
| --- | --- | --- | --- | --- |
| – | CC(C)[C@H](O)C(=O)N[C@H]1Cc2ccc3c(c2)C2(C4=C(C(=O)NCc5ccc(F)cc5)N=C(O4)[C@H](C(C)C)NC1=O)c1ccccc1N[C@H]2O3 (stereo partly drawn) [Example 20] | > 1 | > 1 | – |
| – | CC(C)[C@H](O)C(=O)N[C@H]1Cc2ccc3c(c2)C2(C4=C(C(=O)N5CCCC5c5ccccc5)N=C(O4)[C@H](C(C)C)NC1=O)c1ccccc1N[C@H]2O3 (stereo partly drawn) [Example 21] | > 1 | > 1 | – |
| – | CC(C)[C@H](O)C(=O)N[C@H]1Cc2ccc3c(c2)C2(C4=C(C(=O)NC5CCCCC5)N=C(O4)[C@H](C(C)C)NC1=O)c1ccccc1N[C@H]2O3 (stereo partly drawn) [Example 22] | > 1 | > 1 | – |
| – | CNC(=O)c1nc2oc1C13c4ccccc4N[C@H]1Oc1ccc(cc13)C[C@H](NC(=O)[C@@H](O)C(C)C)C(=O)N[C@H]2C(C)C (stereo partly drawn) [Example 23] | > 1 | > 1 | – |
| – | CC(C)[C@H](O)C(=O)N[C@H]1Cc2ccc3c(c2)C2(C4=C(C(=O)NC(C)(C)C)N=C(O4)[C@H](C(C)C)NC1=O)c1ccccc1N[C@H]2O3 (stereo partly drawn) [Example 24] | > 1 | > 1 | – |
| – | CCN(CC)C(=O)c1nc2oc1C13c4ccccc4N[C@H]1Oc1ccc(cc13)C[C@H](NC(=O)[C@@H](O)C(C)C)C(=O)N[C@H]2C(C)C (stereo partly drawn) [Example 25] | > 1 | > 1 | – |
| – | CC(C)[C@H](O)C(=O)N[C@H]1Cc2ccc3c(c2)C2(C4=C(C(=O)N5CCc6ccccc65)N=C(O4)[C@H](C(C)C)NC1=O)c1ccccc1N[C@H]2O3 (stereo partly drawn) [Example 26] | > 1 | > 1 | – |
| – | CC(C)[C@H](O)C(=O)N[C@H]1Cc2ccc3c(c2)C2(C4=C(C(=O)N5CCN=C5c5ccccc5)N=C(O4)[C@H](C(C)C)NC1=O)c1ccccc1N[C@H]2O3 (stereo partly drawn) [Example 27] | > 1 | > 1 | – |
| – | CC(C)[C@H](O)C(=O)N[C@H]1Cc2ccc3c(c2)C2(C4=C(C(=O)NC5CCc6ccccc65)N=C(O4)[C@H](C(C)C)NC1=O)c1ccccc1N[C@H]2O3 (stereo partly drawn) [Example 28] | > 1 | > 1 | – |
| – | CC(C)[C@H](O)C(=O)N[C@H]1Cc2ccc3c(c2)C2(C4=C(C(=O)NCCO)N=C(O4)[C@H](C(C)C)NC1=O)c1ccccc1N[C@H]2O3 (stereo partly drawn) [Example 29] | > 1 | > 1 | – |
| – | COC(=O)[C@H](CO)NC(=O)c1nc2oc1C13c4ccccc4N[C@H]1Oc1ccc(cc13)C[C@H](NC(=O)[C@@H](O)C(C)C)C(=O)N[C@H]2C(C)C (stereo partly drawn) [Example 30] | > 1 | > 1 | – |
| – | CC(C)[C@H](O)C(=O)N[C@H]1Cc2ccc3c(c2)[C@]2(C4=C(C(N)=O)N=C(O4)[C@H](C(C)C)NC1=O)c1ccccc1NC2O3 (stereo partly drawn) [Example 31] | > 1 | > 1 | – |
| – | CC(C)[C@H](O)C(=O)N[C@H]1Cc2ccc3c(c2)C2(C4=C(C(=O)NCC(=O)c5c[nH]c6c(O)cccc56)N=C(O4)[C@H](C(C)C)NC1=O)c1ccccc1N[C@H]2O3 (stereo partly drawn) [Example 32] | > 1 | > 1 | – |
| – | CC(C)[C@H](O)C(=O)N[C@H]1Cc2ccc3c(c2)C2(C4=C(C(=O)NCC(=O)c5c[nH]c6c(O)cccc56)N=C(O4)[C@H](C(C)C)NC1=O)c1cccc(Br)c1N[C@H]2O3 (stereo partly drawn) [Example 33] | > 1 | > 1 | – |
| – | CC(C)[C@H](O)C(=O)N[C@H]1Cc2ccc3c(c2)C2(C4=C(C(=O)NCC(=O)c5c[nH]c6ccccc56)N=C(O4)[C@H](C(C)C)NC1=O)c1ccccc1N[C@H]2O3 (stereo partly drawn) [Example 34] | > 1 | > 1 | – |
| – | COC(=O)c1nc2oc1C13c4ccccc4N[C@H]1Oc1ccc(cc13)C[C@H](NC(=O)[C@@H]1CCCN1)C(=O)NC2C(C)C (stereo partly drawn) [Example 35] | > 1 | > 1 | – |

Source: patent US7989482B2, “Indoline anti-cancer agents” (Joyant Pharmaceuticals, Inc., priority 2008, dated 2011)
